The values that follow come from ChEMBL document CHEMBL1145099, “Aloisines, a new family of CDK/GSK-3 inhibitors. SAR study, crystal structure in complex with CDK2, enzyme selectivity, and cellular effects” (J Med Chem, 2003).

The target in assay [1] is Protein kinase C beta type (Homo sapiens, UniProt P05771). The experiment in a line: Inhibition of Protein kinase C beta.
For assay [2], the target named is Dual specificity mitogen-activated protein kinase kinase; MEK1/2 (Homo sapiens, UniProt P36507+Q02750). Put plainly: Inhibition of Mitogen activated protein kinase kinase. The class given is protein assay.
The nature of assay [3]: Inhibition of cGMP-dependent protein kinase.
For assay [4], the target named is Serine/threonine-protein kinase pim-1 (Homo sapiens, UniProt P11309). The experiment in a line: Inhibition of Protein kinase PIM-1.
The target in assay [5] is T1, Protein kinase C zeta type (Homo sapiens, UniProt Q05513).
T1 sequence (Q05513 whole entry): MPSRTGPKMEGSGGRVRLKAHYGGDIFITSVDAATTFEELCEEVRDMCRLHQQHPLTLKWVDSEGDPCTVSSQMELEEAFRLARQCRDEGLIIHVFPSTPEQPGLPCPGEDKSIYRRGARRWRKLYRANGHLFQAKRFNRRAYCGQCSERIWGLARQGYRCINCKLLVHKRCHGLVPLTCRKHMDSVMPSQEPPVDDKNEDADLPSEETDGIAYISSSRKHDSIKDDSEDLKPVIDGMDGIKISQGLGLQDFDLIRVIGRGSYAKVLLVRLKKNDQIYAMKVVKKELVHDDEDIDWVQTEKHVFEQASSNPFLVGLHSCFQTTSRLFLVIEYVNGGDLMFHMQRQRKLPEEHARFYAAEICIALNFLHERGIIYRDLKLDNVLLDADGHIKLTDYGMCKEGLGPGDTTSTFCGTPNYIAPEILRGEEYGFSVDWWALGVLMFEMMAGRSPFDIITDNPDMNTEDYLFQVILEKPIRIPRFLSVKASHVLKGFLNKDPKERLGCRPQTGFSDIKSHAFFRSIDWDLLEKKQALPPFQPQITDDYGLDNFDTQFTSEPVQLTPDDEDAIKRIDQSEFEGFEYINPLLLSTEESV
The experiment in a line: Inhibition of protein kinase C zeta.

In assay [6] the target is Protein kinase C alpha type (Homo sapiens, UniProt P17252). The experiment in a line: Inhibition of protein kinase C alpha.
The target of assay [7] is Protein kinase C gamma type (Homo sapiens, UniProt P05129). Put plainly: Inhibition of Protein kinase C gamma.
Assay [8] has as its target Cyclin-dependent kinase 2/cyclin E (Homo sapiens, UniProt P24941). Put plainly: Inhibition of Cyclin-dependent kinase 2-cyclin E. The class given is protein-complex assay.
The target of assay [9] is RAF proto-oncogene serine/threonine-protein kinase (Homo sapiens, UniProt P04049). The experiment in a line: Inhibition of RAF proto-oncogene serine/threonine-protein kinase (c-raf).
Assay [10] concerns the target Protein kinase C delta type (Homo sapiens, UniProt Q05655). The experiment in a line: Inhibition of protein kinase C delta.
The target in assay [11] is T2, Protein kinase C epsilon type (Homo sapiens, UniProt Q02156).
T2 sequence (Q02156 whole entry): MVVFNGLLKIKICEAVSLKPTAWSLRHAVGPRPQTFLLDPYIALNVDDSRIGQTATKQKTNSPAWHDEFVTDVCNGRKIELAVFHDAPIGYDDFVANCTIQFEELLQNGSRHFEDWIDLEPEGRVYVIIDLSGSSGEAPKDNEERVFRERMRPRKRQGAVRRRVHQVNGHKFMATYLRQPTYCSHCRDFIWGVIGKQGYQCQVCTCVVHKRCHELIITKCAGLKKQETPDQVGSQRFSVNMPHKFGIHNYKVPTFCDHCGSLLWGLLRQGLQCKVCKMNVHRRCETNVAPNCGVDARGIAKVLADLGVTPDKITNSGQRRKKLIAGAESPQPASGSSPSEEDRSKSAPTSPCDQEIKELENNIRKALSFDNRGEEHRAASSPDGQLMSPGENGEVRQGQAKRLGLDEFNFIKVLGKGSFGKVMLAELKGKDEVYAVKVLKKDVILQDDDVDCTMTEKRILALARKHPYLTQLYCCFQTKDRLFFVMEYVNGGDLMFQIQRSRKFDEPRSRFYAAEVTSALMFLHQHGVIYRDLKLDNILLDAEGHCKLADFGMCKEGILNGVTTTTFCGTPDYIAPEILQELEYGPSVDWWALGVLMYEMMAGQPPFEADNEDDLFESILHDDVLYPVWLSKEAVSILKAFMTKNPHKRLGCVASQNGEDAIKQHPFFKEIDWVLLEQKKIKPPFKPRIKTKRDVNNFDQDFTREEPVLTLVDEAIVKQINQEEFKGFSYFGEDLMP
Put plainly: Inhibition of protein kinase C epsilon.

For a further assay, the target named is Casein kinase II (Homo sapiens, UniProt P19784+P67870+P68400). The experiment in a line: Inhibition of Casein kinase II. The class given is protein-complex assay.
For the next assay, the target named is Casein kinase I. The experiment in a line: Inhibition of Casein kinase I. The class given is protein assay.
Assay [12] in a line: Inhibition of cAMP dependent protein kinase, PKA.
The target of assay [13] is c-Jun N-terminal kinase, JNK (Homo sapiens, UniProt P45983+P53779+P45984). Put plainly: Inhibition of c-Jun N-terminal kinase. The class given is protein assay.
Assay [14] concerns the target T3, Serine/threonine-protein kinase D1 (Homo sapiens, UniProt Q15139).
T3 sequence (Q15139 whole entry): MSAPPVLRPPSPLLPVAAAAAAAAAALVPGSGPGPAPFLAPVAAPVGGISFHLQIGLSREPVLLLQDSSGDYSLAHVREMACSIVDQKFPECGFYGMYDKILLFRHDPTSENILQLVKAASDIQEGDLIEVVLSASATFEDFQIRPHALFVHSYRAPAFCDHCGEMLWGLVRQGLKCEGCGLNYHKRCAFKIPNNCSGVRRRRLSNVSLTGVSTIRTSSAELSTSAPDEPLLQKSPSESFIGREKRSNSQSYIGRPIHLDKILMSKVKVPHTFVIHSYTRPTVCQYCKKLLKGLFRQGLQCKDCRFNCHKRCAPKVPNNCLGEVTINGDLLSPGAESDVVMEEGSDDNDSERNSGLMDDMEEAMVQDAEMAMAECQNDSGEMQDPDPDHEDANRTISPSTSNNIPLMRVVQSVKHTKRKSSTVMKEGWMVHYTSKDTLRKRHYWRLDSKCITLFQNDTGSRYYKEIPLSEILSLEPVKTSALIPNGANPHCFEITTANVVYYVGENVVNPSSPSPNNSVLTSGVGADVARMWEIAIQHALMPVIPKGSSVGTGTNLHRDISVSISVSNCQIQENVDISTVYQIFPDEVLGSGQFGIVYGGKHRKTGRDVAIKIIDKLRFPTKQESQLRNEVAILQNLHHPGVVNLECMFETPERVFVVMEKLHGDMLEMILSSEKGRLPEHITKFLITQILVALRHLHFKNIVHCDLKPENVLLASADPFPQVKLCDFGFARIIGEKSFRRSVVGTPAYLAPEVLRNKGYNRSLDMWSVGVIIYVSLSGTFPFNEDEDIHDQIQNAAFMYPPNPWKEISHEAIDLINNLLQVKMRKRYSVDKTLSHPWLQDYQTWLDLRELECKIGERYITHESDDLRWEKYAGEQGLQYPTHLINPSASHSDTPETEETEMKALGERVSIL
The experiment in a line: Inhibition of Protein kinase C mu.

Assay [15] deals with Cyclin-dependent kinase 4/cyclin D1 (Homo sapiens, UniProt P11802). Put plainly: Inhibition of Cyclin-dependent kinase 4-cyclin D1.
Assay [16] has as its target Cyclin-dependent kinase 2/cyclin A (Homo sapiens, UniProt P24941). Put plainly: Inhibition of Cyclin-dependent kinase 2-cyclin A. The class given is protein-complex assay.

Sequence of Cyclin-dependent kinase 4/cyclin D1 (P11802 whole entry): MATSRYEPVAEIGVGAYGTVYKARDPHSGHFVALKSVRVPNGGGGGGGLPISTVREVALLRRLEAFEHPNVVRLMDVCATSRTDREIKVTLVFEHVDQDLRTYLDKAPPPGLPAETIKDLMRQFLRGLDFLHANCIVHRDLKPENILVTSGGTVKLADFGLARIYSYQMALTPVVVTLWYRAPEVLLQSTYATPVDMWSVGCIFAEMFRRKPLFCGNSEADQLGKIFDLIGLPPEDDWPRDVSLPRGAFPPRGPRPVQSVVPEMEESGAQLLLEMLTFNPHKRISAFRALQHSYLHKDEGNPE
Sequence of Cyclin-dependent kinase 4/cyclin D1 (P24385 whole entry, further chain): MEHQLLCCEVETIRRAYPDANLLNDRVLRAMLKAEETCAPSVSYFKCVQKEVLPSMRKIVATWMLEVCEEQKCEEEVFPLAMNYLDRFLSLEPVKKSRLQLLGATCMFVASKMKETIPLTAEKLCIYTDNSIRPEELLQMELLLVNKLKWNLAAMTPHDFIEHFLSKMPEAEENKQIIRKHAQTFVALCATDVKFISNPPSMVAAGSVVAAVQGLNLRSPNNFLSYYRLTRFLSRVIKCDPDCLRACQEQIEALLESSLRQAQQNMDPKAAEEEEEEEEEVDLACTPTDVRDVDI
Sequence of Casein kinase II (P67870 whole entry): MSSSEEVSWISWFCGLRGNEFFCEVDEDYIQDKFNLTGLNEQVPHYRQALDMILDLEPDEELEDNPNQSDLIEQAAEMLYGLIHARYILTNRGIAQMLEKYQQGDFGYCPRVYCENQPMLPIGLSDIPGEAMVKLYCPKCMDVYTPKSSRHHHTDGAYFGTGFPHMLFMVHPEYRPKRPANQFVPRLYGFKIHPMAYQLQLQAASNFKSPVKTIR
Sequence of Casein kinase II (P68400 whole entry): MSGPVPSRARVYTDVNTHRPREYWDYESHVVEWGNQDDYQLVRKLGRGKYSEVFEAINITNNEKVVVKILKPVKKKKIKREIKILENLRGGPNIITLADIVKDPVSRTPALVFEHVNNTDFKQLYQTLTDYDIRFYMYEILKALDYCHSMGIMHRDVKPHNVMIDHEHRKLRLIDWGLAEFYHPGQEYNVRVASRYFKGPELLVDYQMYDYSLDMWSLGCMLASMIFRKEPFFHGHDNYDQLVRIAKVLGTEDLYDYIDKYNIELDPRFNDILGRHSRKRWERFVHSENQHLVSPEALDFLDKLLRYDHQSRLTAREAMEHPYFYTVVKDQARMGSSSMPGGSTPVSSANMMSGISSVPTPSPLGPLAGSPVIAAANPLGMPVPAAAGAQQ
Sequence of Casein kinase II (P19784 whole entry): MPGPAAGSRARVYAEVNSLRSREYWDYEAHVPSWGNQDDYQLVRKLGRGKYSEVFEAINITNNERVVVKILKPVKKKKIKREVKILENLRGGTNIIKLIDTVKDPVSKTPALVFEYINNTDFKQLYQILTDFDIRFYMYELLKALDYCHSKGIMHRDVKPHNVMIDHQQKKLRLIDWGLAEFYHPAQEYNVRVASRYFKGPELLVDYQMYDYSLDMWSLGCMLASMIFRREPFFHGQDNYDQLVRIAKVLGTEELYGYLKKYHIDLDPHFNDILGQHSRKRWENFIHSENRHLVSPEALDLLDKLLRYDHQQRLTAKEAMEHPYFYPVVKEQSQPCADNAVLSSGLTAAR
Sequence of RAF proto-oncogene serine/threonine-protein kinase (P04049 whole entry): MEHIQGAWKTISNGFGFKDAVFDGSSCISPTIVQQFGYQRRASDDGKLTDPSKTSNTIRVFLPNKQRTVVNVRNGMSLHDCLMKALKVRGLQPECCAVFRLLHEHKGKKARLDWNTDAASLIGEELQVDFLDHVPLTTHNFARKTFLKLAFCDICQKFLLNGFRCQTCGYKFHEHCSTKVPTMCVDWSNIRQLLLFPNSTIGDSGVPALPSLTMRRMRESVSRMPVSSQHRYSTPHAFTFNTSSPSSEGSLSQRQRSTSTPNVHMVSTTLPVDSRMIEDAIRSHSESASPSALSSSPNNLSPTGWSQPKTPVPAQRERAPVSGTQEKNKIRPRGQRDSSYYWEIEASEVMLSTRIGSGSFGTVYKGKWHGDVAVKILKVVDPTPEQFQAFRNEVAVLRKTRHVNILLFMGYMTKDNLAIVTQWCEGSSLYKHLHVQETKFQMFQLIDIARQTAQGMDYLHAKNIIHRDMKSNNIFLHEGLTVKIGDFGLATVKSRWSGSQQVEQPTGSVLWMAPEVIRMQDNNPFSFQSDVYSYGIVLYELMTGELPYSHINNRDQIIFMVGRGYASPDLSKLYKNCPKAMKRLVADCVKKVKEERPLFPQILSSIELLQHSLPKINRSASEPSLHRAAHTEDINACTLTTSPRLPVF
Sequence of Protein kinase C delta type (Q05655 whole entry): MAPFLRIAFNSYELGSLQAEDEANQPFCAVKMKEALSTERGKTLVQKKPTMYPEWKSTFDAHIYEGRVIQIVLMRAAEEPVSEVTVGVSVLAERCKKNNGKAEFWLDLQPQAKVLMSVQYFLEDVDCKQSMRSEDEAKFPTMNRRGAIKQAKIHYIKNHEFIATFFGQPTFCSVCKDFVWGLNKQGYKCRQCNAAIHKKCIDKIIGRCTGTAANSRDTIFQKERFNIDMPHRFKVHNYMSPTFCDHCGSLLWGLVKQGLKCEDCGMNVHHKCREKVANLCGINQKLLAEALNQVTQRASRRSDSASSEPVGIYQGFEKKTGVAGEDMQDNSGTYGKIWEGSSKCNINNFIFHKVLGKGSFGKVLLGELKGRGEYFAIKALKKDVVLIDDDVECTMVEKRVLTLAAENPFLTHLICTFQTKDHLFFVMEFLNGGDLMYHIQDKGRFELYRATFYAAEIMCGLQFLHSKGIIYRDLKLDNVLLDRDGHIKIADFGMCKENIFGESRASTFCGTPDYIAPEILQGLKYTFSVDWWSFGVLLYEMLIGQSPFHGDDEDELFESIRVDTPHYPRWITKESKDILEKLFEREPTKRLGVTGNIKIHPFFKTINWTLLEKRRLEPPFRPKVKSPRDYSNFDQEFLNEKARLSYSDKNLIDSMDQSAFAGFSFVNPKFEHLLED
Sequence of Serine/threonine-protein kinase pim-1 (P11309 whole entry): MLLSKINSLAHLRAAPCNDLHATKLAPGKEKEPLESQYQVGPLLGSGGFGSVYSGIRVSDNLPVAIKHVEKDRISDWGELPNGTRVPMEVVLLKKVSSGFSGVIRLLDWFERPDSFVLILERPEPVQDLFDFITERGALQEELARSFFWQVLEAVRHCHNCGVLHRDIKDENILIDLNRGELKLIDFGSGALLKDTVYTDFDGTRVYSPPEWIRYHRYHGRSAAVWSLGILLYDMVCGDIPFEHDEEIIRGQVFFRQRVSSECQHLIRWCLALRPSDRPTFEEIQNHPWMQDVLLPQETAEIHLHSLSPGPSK

In the case of `CCCCc1c(-c2ccc(O)cc2)[nH]c2nccnc12` [ALOISINE A], the IC50 was above 100 µM in [1]; above 100 µM in assay [2]; 100 µM in assay [3]; above 10 µM in assay [4]; above 100 µM in [5]; above 100 µM in [6]. Moreover, the concentration for half-maximal inhibition (IC50) was above 100 µM in [7]; 0.4 µM in assay [8]; above 100 µM in assay [9]; above 100 µM in [10]; above 100 µM in assay [11]; above 100 µM on Casein kinase II. Besides, the IC50 at Casein kinase I is above 100 µM; in assay [12] it was 100 µM; in assay [13], 3.3 µM; in assay [14], above 100 µM; in assay [15], above 100 µM; in assay [16], 0.12 µM.

What is called IC50 is the midpoint of a concentration-inhibition curve. Read a high IC50 as a need for much substance.
